Molecules are shown by their SMILES.

The experiment deals with Botrytis cinerea. In words: Hyphal growth of Botrytis cinerea in agricultural-chemical three-concentration-level layers-stacked culture media. Conditions: 25 degrees Celsius, seven days; for hyphae of Botrytis cinerea in the culture medium layer (microscope observation from side surface): potato dextrose agar. In kind it is cell-based.

Description: Botrytis cinerea that is one type of phytopathogenic fungus and a pathogenic fungus of tomato gray mold disease was inoculated into a potato dextrose agar culture medium (Difco (registered trademark) Potato Dextrose Agar). Next, the culture medium was left to stand still at a temperature of 25 degrees Celsius for one week. […] Next, the Botrytis cinerea-cultured potato dextrose agar culture medium in which hyphae sufficiently grew was left under irradiation with black light for not less than four days and left in a room-temperature environment for not less than two weeks to promote spore formation. […] Hereinafter, this aqueous solution is referred to as an “aqueous phytopathogenic fungus solution”.
Agricultural-chemical main-ingredient reagent Captan (manufactured by Tokyo Chemical Industry Co., Ltd. (TCI)) was added to potato dextrose agar culture media, with a charging amount (concentration) changed, to produce three layers of original culture media. Captan was prepared into a dimethyl sulfoxide (DMSO) (manufactured by SIGMA-ALDRICH) solution of Captan at a concentration 100 times a standard use concentration. The solution was charged into and mixed with the potato dextrose agar culture media respectively in amounts of 0 ml, 2 ml, and 10 ml per 1 L of the potato dextrose agar culture media to make three-concentration-level culture media respectively at a Captan concentration of 0 (no blending) and in an amount ⅕ a standard use amount of Captan and the standard use amount. In the present example, the potato dextrose agar culture media containing Captan at three concentration levels were stacked from bottom in an order of the Captan standard amount culture medium, the culture medium in an amount ⅕ the Captan standard amount, and the medium with no Captan blended, and the stacked body was cut out with a glass cylindrical, square, or rectangular shape forming member into a device of the example. […]

For the molecule `O=C1C2CC=CCC2C(=O)N1SC(Cl)(Cl)Cl` (stereo not drawn) [Captan], under “layer where hyphal growth stopped”, the “amount at which an effect against Botrytis cinerea was exerted (effective concentration)” value was “⅕”. Further, the “hyphae of Botrytis cinerea in the culture medium layer (microscope observation from side surface)” value was “No hypha was confirmed” (lower layer 64, Captan blended in the standard amount) and “no hypha of Botrytis cinerea was confirmed” (second layer 63, Captan blended in the amount ⅕ the standard use amount).

The values above are taken from US12054765B2, “Phytopathogenic fungus detecting apparatus, and detecting method and method for selecting concentration of agricultural chemical using same” (Panasonic Intellectual Property Management Co., Ltd., priority 2018, dated 2024).
